Experimental data: ChEMBL document CHEMBL1150683, “Two new carbazole alkaloids from Murraya koenigii” (J Nat Prod, 2003)

Molecular target: Cathepsin B (Homo sapiens, UniProt P07858)
Assay: Inhibition of cathepsin B mediated osteoporotic activity

With `COc1cc2c([nH]c3c4c(c(C)cc32)OC(C)(C)C=C4)c(-c2c(O)c(OC)cc3c2[nH]c2c4c(c(C)cc23)OC(C)(C)C=C4)c1O` the IC50 was 2110 nM.
